This is an account of results in patent US9131719B2, “Use of certain neoflavonoids for intensifying and/or producing a sensory impression of sweetness” (SYMRISE AG, priority 2011, dated 2015).

Holding throughout (format): in vivo
For test [1], the system named is impression of sweetness of a 5 wt % sucrose solution. The test can be described thus: Intensification of the impression of sweetness of a sugar solution, assessed by a panel of experts. The conditions noted are these: for sweetness intensifying action (in words): residue at position C5 instead of C7, compared with compounds to be used according to the invention; for % intensification of the impression of sweetness: calculated from mean values with vs without test substance; for Impression of sweetness (1-10) with: scale 1 [not sweet] to 10 [extremely sweet]. As for the experimental part: For quantifying the intensification of the impression of sweetness, the sweetness of a 5 wt % sucrose solution (consisting of 5 wt % sucrose in water) and of a sample that consisted of water, 5 wt % sucrose and a specified amount (i.e. that given below in each case) of test substance was determined by a panel of experts. The assessment was based on a scale from 1 [not sweet] to 10 [extremely sweet]. The intensification of the impression of sweetness (in %) was calculated from the respective mean values of the assessments of the sucrose solution and of the respective sample to be investigated containing the test substance. The test substances used were in each case a racemic mixture of the following compounds to be used according to the invention. […]

Test [2] concerns bitterness of a solution containing 500 ppm caffeine. The test can be described thus: Reduction of bitterness of a solution of bitter substance (caffeine), assessed by a panel of experts. The conditions noted are these: 50 ppm test substance. An excerpt:
(§1) To quantify the reduction (i.e. the masking or decrease) of the impression of bitterness in a sample, the bitterness of a solution containing 500 ppm caffeine or 100 ppm naringin was compared by a panel of experts, in each case against a sample that contained 500 ppm caffeine or 100 ppm naringin and additionally the amount stated in each case of a substance to be assessed (with respect to capacity for reducing bitterness) (assessment scale: 1 [not bitter] through 10 [extremely bitter]). Evaluation, i.e. calculation of the reduction (in %) of the impression of bitterness, was based in each case on the mean values of the assessment of the panel of experts.

Test [3] deals with bitterness of a solution containing 100 ppm naringin. The test can be described thus: Reduction of bitterness of a solution of bitter substance (naringin), assessed by a panel of experts. Particulars: 25 ppm test substance.
Text: as §1

[4] abbreviates: 50 ppm test substance in 5 wt % sucrose solution.
Setting [5] is: 50 ppm test substance in water with 5 wt % sucrose.
Setting [6] is: scale 1 [not bitter] through 10 [extremely bitter].

Consider `COc1cc([C@@H]2CC(=O)Oc3cc(O)cc(OC)c32)ccc1O` [(A), (4S)-7-Hydroxy-4-(4-hydroxy-3-methoxyphenyl)-5-methoxy-chroman-2-one], for which the “sweetness intensifying action (in words)” value in test [1] was “much lower sweetness intensifying action”.

Turning to `CCCOc1ccc2c(c1)OC(=O)C[C@H]2c1ccc(O)cc1` [(11) + (12), (4S)-4-(4-Hydroxyphenyl)-7-propoxy-chroman-2-one (11) and (4R)-4-(4-hydroxyphenyl)-7-propoxy-chroman-2-one (12)], the “% intensification of the impression of sweetness” value (shortened to “% intensification”) in test [1] (25 ppm test substance in 5 wt % sucrose solution) is recorded as 14% (p < 0.09). For the same molecule, the “Impression of sweetness (1-10) with” value in test [1] (25 ppm test substance in water with 5 wt % sucrose) is 6.6 ± 1.5.

In the case of “(4S)-7-Methoxy-4-(4-methoxyphenyl)chroman-2-one (1) and (4R)-7-methoxy-4-(4-methoxyphenyl)chroman-2-one (2) [(1) + (2)]”, the “% intensification” value in test [1] (setting [4]) is given as 12% (p < 0.08). For the same molecule, the “Impression of sweetness (1-10) with” value in test [1] (setting [5]) stood at 5.4 ± 0.9.

Take “(4S)-4-(4-Hydroxyphenyl)-7-methoxy-chroman-2-one (19) and (4R)-4-(4-hydroxyphenyl)-7-methoxy-chroman-2-one (20) [(19) + (20)]”: the “% intensification” value in test [1] (setting [4]) was 14% (p < 0.09). In addition, the “Impression of sweetness (1-10) with” value in test [1] (setting [5]) came out at 5.4 ± 1.1. The “% reduction of the impression of bitterness” value in test [2] (calculated from mean values) is recorded as 9.9%. Also, the “Impression of bitterness (1-10) with” value in test [2] (setting [6]) is 3.6 ± 1.5.

Consider `COc1cc(OC)c2c(c1)OC(=O)C[C@H]2c1ccc(O)c(OC)c1` [(17) + (18), (4S)-4-(4-Hydroxy-3-methoxyphenyl)-5,7-dimethoxy-chroman-2-one (17) and (4R)-4-(4-hydroxy-3-methoxyphenyl)-5,7-dimethoxy-chroman-2-one (18)], for which, in test [1] (setting [4]), the “% intensification” value is listed as 37% (p < 0.002). Also, the “Impression of sweetness (1-10) with” value in test [1] (setting [5]) was 7.1 ± 1.8. Moreover, the “% reduction of the impression of bitterness” value in test [3] (calculated from mean values) is 9.9%. Also, the “Impression of bitterness (1-10) with” value in test [3] (setting [6]) is 4.8 ± 2.5.

On to `COc1cc([C@H]2CC(=O)Oc3cc(O)cc(OC)c32)ccc1O` [(B), (4R)-7-hydroxy-4-(4-hydroxy-3-methoxyphenyl)-5-methoxy-chroman-2-one], for which, in test [1], the “sweetness intensifying action (in words)” value is reported as “much lower sweetness intensifying action”.

Take `COc1cc(O)c2c(c1)OC(=O)C[C@H]2c1ccc(O)c(OC)c1` [(23) + (24), (4S)-5-Hydroxy-4-(4-hydroxy-3-methoxyphenyl)-7-methoxy-chroman-2-one (23) and (4R)-5-hydroxy-4-(4-hydroxy-3-methoxyphenyl)-7-methoxy-chroman-2-one (24)]: the “% intensification” value in test [1] (setting [4]) is 47%. Further, the “Impression of sweetness (1-10) with” value in test [1] (setting [5]) is 7.6 ± 1.5.

Turning to `COc1cc([C@@H]2CC(=O)Oc3cc(O)cc(OC)c32)ccc1O` [(A) + (B), (4S)-7-Hydroxy-4-(4-hydroxy-3-methoxyphenyl)-5-methoxy-chroman-2-one (A) and (4R)-7-hydroxy-4-(4-hydroxy-3-methoxyphenyl)-5-methoxy-chroman-2-one (B)], the “% intensification” value in test [1] (setting [4]) was 8% (p < 0.5). For the same molecule, the “Impression of sweetness (1-10) with” value in test [1] (setting [5]) worked out at 5.8 ± 1.4.
